Results taken from PMC7116141 (Journal of the American Chemical Society, 2006).

Biological target: T1, human OGA (hOGA, O-GlcNAcase) (Homo sapiens, UniProt O60502)
T1 sequence (O60502 1-916): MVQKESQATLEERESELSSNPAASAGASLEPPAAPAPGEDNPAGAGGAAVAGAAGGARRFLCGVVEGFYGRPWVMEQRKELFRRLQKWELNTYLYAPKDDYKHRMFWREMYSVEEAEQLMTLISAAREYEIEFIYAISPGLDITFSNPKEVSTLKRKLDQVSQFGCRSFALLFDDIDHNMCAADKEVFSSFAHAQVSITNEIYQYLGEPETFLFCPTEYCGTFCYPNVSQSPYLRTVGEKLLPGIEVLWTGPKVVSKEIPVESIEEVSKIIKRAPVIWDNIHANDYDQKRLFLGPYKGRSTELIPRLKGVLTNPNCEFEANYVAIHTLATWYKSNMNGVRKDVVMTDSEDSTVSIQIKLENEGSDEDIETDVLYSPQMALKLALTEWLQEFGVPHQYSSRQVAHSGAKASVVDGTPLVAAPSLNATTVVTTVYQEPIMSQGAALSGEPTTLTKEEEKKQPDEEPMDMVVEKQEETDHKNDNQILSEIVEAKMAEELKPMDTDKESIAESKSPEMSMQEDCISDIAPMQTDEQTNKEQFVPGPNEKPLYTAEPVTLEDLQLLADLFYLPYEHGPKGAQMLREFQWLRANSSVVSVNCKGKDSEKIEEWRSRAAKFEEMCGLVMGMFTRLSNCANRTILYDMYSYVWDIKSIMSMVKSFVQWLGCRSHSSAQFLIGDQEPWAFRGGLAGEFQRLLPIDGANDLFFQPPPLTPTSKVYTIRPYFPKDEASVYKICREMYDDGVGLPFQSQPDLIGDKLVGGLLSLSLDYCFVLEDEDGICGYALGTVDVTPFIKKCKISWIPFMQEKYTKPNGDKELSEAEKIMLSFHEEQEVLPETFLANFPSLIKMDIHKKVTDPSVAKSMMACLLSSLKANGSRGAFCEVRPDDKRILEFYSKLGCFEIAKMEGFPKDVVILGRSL
Test: anti-O-GlcNAc immunoblot of treated HEK […] cells
Format: cell-based

Structure (SMILES): CC(C)C(=O)N[C@H]1c2nc(CCc3ccccc3)cn2[C@H](CO)[C@@H](O)[C@@H]1O [compound 1, GlcNAcstatin]
- anti-O-GlcNAc immunoblot of treated HEK 293 cells (qualitative): is active against human OGA (hOGA) in human cell lines
